Measurements: US6383543B1, “Process for the extraction of an organic salt from plants, the salt, and other similar salts” (RAD Natural Technologies Ltd., priority 1998, dated 2002)

Columns and labels:
[1] = Antioxidant effect in oil in water emulsions containing soybean oil, TBA test at 50° C.; conditions: oil in water emulsion
Protocol: (a) Oil in water emulsions were prepared from soybean oil (10%), Tween 80 (7%), Span 80 (3%), water (80%) and antioxidant (0.1 or 0.02%).

[2] = Antioxidant effect in water in oil emulsions from soybean oil, Rancimat (AOM) test at 100° C.; conditions: water in oil emulsion
[3] = Antioxidant effect in bulk oil (soybean oil) at 60° C.
Source text: A concentrate was first prepared containing 40% lecithin, 40% oil (e.g. soybean oil), 20% propylene glycol and 4% based on the foregoing mixture of 65% (≡2.6% pure) sodium rosmarinate.

[4] = Comparative efficiency: time the antioxidant continues to inhibit oxidation of linoleic acid; format: biochemical; conditions: time until antioxidant is consumed and rate of change of absorption at 234 nm reverts to control
Protocol: The method is based on the rate of oxidation of linoleic acid (LA) to its conjugated diene hydroperoxide (Pryor et al., in J. Org. […] A 1% LA aq. emulsion was prepared with 1% Tween 20 and 0.05M sodium phosphate buffer (pH 7.4). A control sample contained 0.025 ml of the LA emulsion+2.87 ml. of the buffer+0.1 ml 0.05M ABAP; a test sample contained 0.05 ml of the LA emulsion+2.7-2.8 ml of the buffer+0.1 ml 0.05M ABAP+0.05-0.1 ml of the sample under test. Absorption at 234 nm is followed for 5 minutes to establish the uninhibited rate of autoxidation. […] The test antioxidant was added and the inhibited reaction was followed until the antioxidant was consumed and the rate of the absorption change at 234 nm reverted to that observed at the outset.

[5] = Solubility; format: physicochemical; conditions: for Solubility: lipid or water; for solubility in acetone: b32: essentially 100% acetone
[6] = yes/no; cited from earlier work
[7] = Antioxidant effect in emulsions containing β-carotene; conditions: over a 100 hour time period; 0.1%
Protocol: A model emulsion was then prepared by adding double-distilled water (25 ml) to the residue and diluting to 500 ml with phosphate buffer (pH 7.0). […] […] A control sample contained no antioxidant but instead, 95% ethanol (2 ml).

[8] = Stabilization of ascorbic acid (50% ethanol, 60° C., 24 hours, HPLC); conditions: 10 mg/ml ascorbic acid, after 60° C.
Protocol: The experiment was repeated with the addition of 0.035 mg or 0.07 mg sodium rosmarinate.

Solubility [5] | Molecule | Efficiency of 10 μg [4] | Toxicity [6] | further results
water | O=C(/C=C/c1ccc(O)c(O)c1)O[C@H](Cc1ccc(O)c(O)c1)C(=O)O [sodium rosmarinate] | 1413 h | no | solubility in acetone [5]: virtually acetone-insoluble; Days until oxidation ([3]; concentration 0.005% (as 0.2% of the concentrate)): 7 days; Days until oxidation ([3]; concentration 0.013% (as 0.5% of the concentrate)): 8 days
lipid | Vitamin E | 444 h | no | Days until oxidation ([1]; antioxidant 0.1%): 1 days; Hours until oxidation ([2]; antioxidant 0.1%): 9.58 h; Days until oxidation ([3]; concentration 0.06%): 4 days

Second part, the molecule before the results:

Molecule | Solubility [5] | Efficiency of 10 μg [4] | Toxicity [6] | further results
COc1ccc(O)c(C(C)(C)C)c1 [BHA, butylated hydroxyanisole] | – | – | – | Days until oxidation ([1]; antioxidant 0.02%): 2 days; Hours until oxidation ([2]; antioxidant 0.02%): 9.54 h; Days until oxidation ([3]; concentration 0.02%): 4 days
Cc1cc(C(C)(C)C)c(O)c(C(C)(C)C)c1 [BHT, butylated hydroxytoluene] | lipid | 814 h | yes | –
CCCOC(=O)c1cc(O)c(O)c(O)c1 [PG, propyl gallate] | lipid | 500 h | yes | –
CC(C)(C)c1cc(O)ccc1O [TBHQ, tertiary-butylhydroxyquinone] | lipid | 432 h | yes | –
Cc1c(C)c2c(c(C)c1O)CCC(C)(C(=O)O)O2 (stereo not drawn) [Trolox] | water | 650 h | no | –
O=C1O[C@H]([C@@H](O)CO)C(O)=C1O [Vitamin C, ascorbic acid] | – | – | – | Days until oxidation ([1]; antioxidant 0.1%): 1 days; Hours until oxidation ([2]; antioxidant 0.1%): 25.20 h; protection of β-carotene [7]: little protection
O=C(/C=C/c1ccc(O)c(O)c1)OC(Cc1ccc(O)c(O)c1)C(=O)O (stereo not drawn) [rosmarinic acid] | – | – | – | solubility in acetone [5]: acetone-soluble; % ascorbic acid ([8]; +0.035 mg additive): 68%; % ascorbic acid ([8]; +0.07 mg additive): 90%
